# Experimental data from ChEMBL document CHEMBL1144196, “Carbonic anhydrase activators: kinetic and X-ray crystallographic study for the interaction of D- and L-tryptophan with the mammalian isoforms I-XIV” (Bioorg Med Chem, 2008).
# Columns and labels:
# [1] = molecular target: Carbonic anhydrase 7 (Homo sapiens) (UniProt P43166); experiment: Activation of human recombinant CA7 after 15 mins by stopped-flow CO2 hydration assay
# [2] = molecular target: Carbonic anhydrase 5A, mitochondrial (Homo sapiens) (UniProt P35218); experiment: Activation of human recombinant CA5A after 15 mins by stopped-flow CO2 hydration assay
# [3] = molecular target: Carbonic anhydrase 9 (Homo sapiens) (UniProt Q16790); experiment: Activation of human recombinant CA9 after 15 mins by stopped-flow CO2 hydration assay
# [4] = molecular target: Carbonic anhydrase 14 (Homo sapiens) (UniProt Q9ULX7); experiment: Activation of human recombinant CA14 after 15 mins by stopped-flow CO2 hydration assay
# [5] = molecular target: Carbonic anhydrase 12 (Homo sapiens) (UniProt O43570); experiment: Activation of human recombinant CA12 after 15 mins by stopped-flow CO2 hydration assay
# [6] = molecular target: Carbonic anhydrase 13 (Mus musculus) (UniProt Q9D6N1); experiment: Activation of mouse recombinant CA13 after 15 mins by stopped-flow CO2 hydration assay
# [7] = molecular target: Carbonic anhydrase 2 (Homo sapiens) (UniProt P00918); experiment: Activation of human recombinant CA2 after […] by stopped-flow CO2 hydration assay
# [8] = molecular target: Carbonic anhydrase 5B, mitochondrial (Homo sapiens) (UniProt Q9Y2D0); experiment: Activation of human recombinant CA5B after 15 mins by stopped-flow CO2 hydration assay
# Carbonic anhydrase 5B, mitochondrial (Homo sapiens), sequence (Q9Y2D0 whole entry): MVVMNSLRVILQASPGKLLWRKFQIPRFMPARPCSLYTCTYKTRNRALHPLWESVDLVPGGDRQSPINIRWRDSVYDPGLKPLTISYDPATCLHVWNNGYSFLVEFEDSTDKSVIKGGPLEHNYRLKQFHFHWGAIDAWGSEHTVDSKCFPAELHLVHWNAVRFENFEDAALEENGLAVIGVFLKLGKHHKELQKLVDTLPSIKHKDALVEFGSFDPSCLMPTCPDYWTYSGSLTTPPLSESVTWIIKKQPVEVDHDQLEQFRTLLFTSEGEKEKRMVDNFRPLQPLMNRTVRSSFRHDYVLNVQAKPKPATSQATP
# Carbonic anhydrase 14 (Homo sapiens), sequence (Q9ULX7 whole entry): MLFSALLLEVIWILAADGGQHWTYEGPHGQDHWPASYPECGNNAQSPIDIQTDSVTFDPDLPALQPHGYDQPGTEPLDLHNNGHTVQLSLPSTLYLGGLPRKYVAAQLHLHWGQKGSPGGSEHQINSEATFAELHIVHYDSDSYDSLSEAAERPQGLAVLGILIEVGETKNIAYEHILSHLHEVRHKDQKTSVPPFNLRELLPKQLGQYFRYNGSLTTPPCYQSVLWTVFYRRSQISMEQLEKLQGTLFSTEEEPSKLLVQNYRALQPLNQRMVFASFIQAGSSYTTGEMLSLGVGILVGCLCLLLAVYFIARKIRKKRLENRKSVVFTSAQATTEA
# Carbonic anhydrase 12 (Homo sapiens), sequence (O43570 whole entry): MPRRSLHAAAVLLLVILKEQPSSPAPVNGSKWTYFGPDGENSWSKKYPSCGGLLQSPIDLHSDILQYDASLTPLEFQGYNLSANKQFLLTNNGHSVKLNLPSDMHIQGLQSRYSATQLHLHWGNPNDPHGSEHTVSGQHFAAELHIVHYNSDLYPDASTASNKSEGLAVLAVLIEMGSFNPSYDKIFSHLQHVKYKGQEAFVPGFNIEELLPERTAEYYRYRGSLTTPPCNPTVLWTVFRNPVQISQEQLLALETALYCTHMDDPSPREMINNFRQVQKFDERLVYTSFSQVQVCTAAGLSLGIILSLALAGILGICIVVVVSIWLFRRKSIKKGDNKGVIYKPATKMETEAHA
# Carbonic anhydrase 7 (Homo sapiens), sequence (P43166 whole entry): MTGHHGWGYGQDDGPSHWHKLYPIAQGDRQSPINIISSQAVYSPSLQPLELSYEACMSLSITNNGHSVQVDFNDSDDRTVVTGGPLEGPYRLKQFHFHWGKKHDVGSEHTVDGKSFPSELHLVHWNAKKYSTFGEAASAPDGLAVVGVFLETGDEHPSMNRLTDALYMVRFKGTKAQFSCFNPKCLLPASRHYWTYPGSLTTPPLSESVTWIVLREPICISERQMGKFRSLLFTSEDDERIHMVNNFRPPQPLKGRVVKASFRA
# Carbonic anhydrase 5A, mitochondrial (Homo sapiens), sequence (P35218 whole entry): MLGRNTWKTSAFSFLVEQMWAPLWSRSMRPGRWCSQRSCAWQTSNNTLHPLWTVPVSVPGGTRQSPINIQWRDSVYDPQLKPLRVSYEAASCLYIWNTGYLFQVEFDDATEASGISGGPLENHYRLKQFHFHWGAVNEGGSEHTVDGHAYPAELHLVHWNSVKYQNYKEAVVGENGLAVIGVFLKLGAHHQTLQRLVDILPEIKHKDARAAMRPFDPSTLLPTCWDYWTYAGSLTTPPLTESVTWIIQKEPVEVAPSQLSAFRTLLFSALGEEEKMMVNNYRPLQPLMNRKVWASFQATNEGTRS
# Carbonic anhydrase 13 (Mus musculus), sequence (Q9D6N1 whole entry, looked up): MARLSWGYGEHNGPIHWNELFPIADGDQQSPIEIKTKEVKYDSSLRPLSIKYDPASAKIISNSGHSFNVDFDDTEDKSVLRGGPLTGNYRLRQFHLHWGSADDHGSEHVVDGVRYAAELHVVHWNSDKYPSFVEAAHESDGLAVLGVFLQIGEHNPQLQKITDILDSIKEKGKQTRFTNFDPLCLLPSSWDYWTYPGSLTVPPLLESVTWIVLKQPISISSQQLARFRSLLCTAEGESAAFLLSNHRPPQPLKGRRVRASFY
Ka [1] [µM],Ka [2] [µM],Ka [3] [µM],Ka [4] [µM],Ka [5] [µM],Ka [6] [µM],Ka [7] [µM],Ka [8] [µM],SMILES
60,63,0.87,36,0.41,,,,CNC[C@@H](O)c1ccc(O)c(O)c1
39,1.24,43,18,28,0.81,0.37,1.35,N[C@H](Cc1c[nH]c2ccccc12)C(=O)O
57,1.13,37,16,26,16,1.13,0.89,N[C@@H](Cc1c[nH]c2ccccc12)C(=O)O
